Source: patent US5646138A, “Contignasterol compounds and pharmaceutical compositions comprising the same” (University of British Columbia, priority 1992, dated 1997)
Entries after “also recorded” stand apart in the source; their conditions may differ.

Key:
tracheal tissues = test: ovalbumine (antigen)-induced contraction of tracheal tissues from sensitized guinea pigs; type: cell-based, guinea pig; settings: antigen ovalbumine (OA)
Source text: We have used the contignasterol as defined in paragraph one of the Summary to block bronchoconstriction induced in guinea pigs. Guinea pigs were sensitized to ovalbumine (OA) that can serve as an antigen. The trachea from these animals after exposure to the antigen (OA) contracted in a similar manner as to in vivo situation.

platelets [1] = test: platelet aggregation caused by platelet activating factor (PAF); type: cell-based
Source text: (§1) PAF is a local mediator of thrombosis. Similarly, collagen exposure of vessel walls leads to the formation of […] clot in the vessels. Therefore, prevention of the formation of blood clots has direct implication in the treatment of thrombosis and associated cardiovascular diseases.
(§2) PAF and collagen were used at their maximal concentrations which induced 100% aggregation of platelets.

platelets [2] = test: platelet aggregation caused by collagen; type: cell-based
Source text: as §1, §2

[3] = tested on: allergen-induced challenge; test: relative potencies of different isomers of contignasterol against allergen-induced challenge
Source text: Table 4 illustrates the relative potencies of different isomers of contignasterol against allergen-induced challenge.

rat mast cells = settings: induced by anti-IgE; cited from earlier work

| SMILES | inhibition at 10 µM [3] | inhibition of histamine release from rat mast cells (in words) (rat mast cells) | other results |
| --- | --- | --- | --- |
| CC(C)C1CC(O)OC([C@@H](C)[C@H]2CC(=O)[C@@H]3[C@@H]4[C@@H](O)[C@H](O)[C@H]5[C@@H](O)[C@H](O)CC[C@]5(C)[C@H]4CC[C@]23C)C1 (some centres unmarked) [Compound 1, contignasterol] | 43% | – | contraction of trachea pretreated with contignasterol after exposure to antigen (in words) (tracheal tissues): did not significantly contract; also recorded: inhibited airway smooth muscle contraction; aggregation of platelets caused by PAF (in words) (platelets [1]): inhibited aggregation of platelets; aggregation of platelets caused by collagen (in words) (platelets [2]): inhibited aggregation of platelets |
| CC(C)C1CC(O)OC([C@@H](C)[C@H]2CC(=O)[C@H]3[C@@H]4[C@@H](O)[C@H](O)[C@H]5[C@@H](O)[C@H](O)CC[C@]5(C)[C@H]4CC[C@]23C)C1 (some centres unmarked) [Compound 2, 14-epicontignasterol] | 25% | – | – |
| COC1CC(C(C)C)CC([C@@H](C)[C@H]2CC(=O)[C@@H]3[C@@H]4[C@@H](O)[C@H](O)[C@H]5[C@@H](O)[C@H](O)CC[C@]5(C)[C@H]4CC[C@]23C)O1 (some centres unmarked) [Compound 3, Methyl-acetal Contignasterol] | 12% | – | – |
| CC(C)C[C@]1(O)C[C@@H](C)[C@H]2[C@@H]1C(=O)[C@@H]1[C@@H]3[C@@H](O)[C@H](O)[C@H]4C[C@H](O)CC[C@]4(C)[C@H]3CC[C@]21C [xestobergsterol A, 23S-16β, 23-cyclo-3α, 6α, 7β, 23-tetrahydroxy-5α, 14β-cholestan-15-one] | – | potent inhibitors of histamine release | – |
| CC(C)C[C@]1(O)C[C@@H](C)[C@H]2[C@@H]1C(=O)[C@@H]1[C@@H]3[C@@H](O)[C@H](O)[C@H]4C[C@H](O)[C@@H](O)[C@@H](O)[C@]4(C)[C@H]3CC[C@]21C [xestobergsterol B, 23S-16β, 23-cyclo-1β, 2β, 3α, 6α, 7β, 23-hexahydroxy-5α, 14β-cholestan-15-one] | – | potent inhibitors of histamine release | – |
